Reference: a melting point compilation (Tetko et al.; mined from patent text by program, amines drawn as free bases though some values may be those of a salt)

SMILES | melting point
C[Si](C)(C)C/C=C/[C@@H](Cc1ccccc1)C(=O)N1C(=O)OC[C@H]1Cc1ccccc1 | 132 to 135 °C
COc1ccc2c(c1)COc1c-2ccc2c(OC)cccc12 | 166 to 167 °C
CN(C)c1cnn(-c2ccccc2)c(=O)c1N | 188 to 189 °C
CC(O)Cc1cc2c3ccccc3[nH]c(=O)n2n1 (configuration not stated) | 228 to 229 °C
CC(C)Cn1cnc2c(C(N)=O)nc3ccccc3c21 | 225 to 226 °C
CCc1nc2c(N)nc3cc(OCC(=O)N4CCOCC4)ccc3c2n1CCOc1ccccc1 | 208 to 209 °C
C=C(C(=O)OCC)c1cccc(-c2cc3c(cc2C)C(C)(C)CCC3(C)C)c1 | 70 to 72 °C
OC(COc1ccc(F)cc1)CN1CCC(O)(c2ccc(Cl)cc2)CC1 (configuration not stated) | 103 to 105 °C
Fc1ccc(C(=S)N2CCCC(c3ccc(Cl)c(Cl)c3)=N2)cc1F | 135 to 136 °C
C[Si](C)(C)N(SN=C(Cl)C#N)[Si](C)(C)C | 29 to 30 °C
CCOC(=O)c1c(Cl)nc2ccccc2c1CCl | > 260 °C
N#CCCC(C=O)(c1ccccc1)c1ccccc1 | 80 to 82 °C
C[C@@H](n1cnc2cc(N3CCN(C)CC3)c(F)cc2c1=O)[C@](O)(Cn1cncn1)c1ccc(F)cc1F | 106 to 112 °C
CCOC(=O)c1cnnn1C[C@@H]1CN(c2ccc(N3CCC(=CC#N)CC3)c(F)c2)C(=O)O1 | 70 to 72 °C
CCCCC(=O)NC(C(=O)OCc1ccccc1)C(C)C (configuration not stated) | 118 to 127 °C
CCOC(=O)c1cnn(-c2c(Cl)cc(Cl)cc2Cl)c1C | 112 to 113 °C
CN1CCCCC1COC(=O)c1cccc(NC(=O)C(CS)Cc2ccccc2)c1 (configuration not stated) | 68 to 69 °C
CCCc1nc2c(N)nc(C)c(C)c2n1NC1CCCCC1 | 177 to 179 °C
FC(F)(F)c1cccc(CSc2nnc(-c3ccc4nccn4c3)o2)c1 | 147 to 148 °C
COC1(c2cccc(Sc3ccc(C(C)=NO)cc3)c2)CCN(CC(F)(F)F)C1 (configuration not stated) | 86 to 88 °C
Nc1ccc(Cl)c(C2SCCS2)c1 | 60 to 63 °C
CCCN1CCC(O)(c2cc(F)cc(F)c2)C1 (configuration not stated) | 117 to 118 °C
COc1ccc(CN2C(=O)CC2C(=O)O)c(OC)c1 (configuration not stated) | 124 to 125 °C
Cc1cc(C(=CC(=O)N2CCOCC2)c2ccccc2)ccc1OS(=O)(=O)N(C)C | 108 °C
C#Cc1cccc(Nc2ncnc3ccc(S(=O)(=O)n4ccc(C=CC(=O)Nc5ccccc5N)c4)cc23)c1 | 150 to 153 °C
CCCCCC/C=C/CCCCCCCC(=O)Nc1nc(CC(=O)O)cs1 | 117 to 118 °C
CC1C(=O)c2cc(NS(C)(=O)=O)ccc2OC12CCN(CCc1ccccn1)CC2 (configuration not stated) | 210 to 211 °C
Cc1c(C(=O)CBr)ccn1S(=O)(=O)c1ccccc1 | 108 to 110 °C
CC(=O)N(C)c1c(C(=O)C2CCCCC2)[nH]c2cc(Cl)ccc12 | 162 to 163 °C

Continued, values first:

melting point | SMILES
99.5 °C | CN(Cc1ccccc1)c1ccc(C(=O)c2ccccc2)cc1[N+](=O)[O-]
142 °C | CNS(=O)(=O)c1csc(C(=O)OC)c1
196 to 199 °C | CN1C(=O)CCC2(C)c3ccc(Sc4nccc5ccccc45)cc3CCC12 (configuration not stated)
147 °C | CCOc1ccc([N+](=O)[O-])c(NC23CC4CC(CC(C4)C2)C3)c1
356 to 358 °C | CC(C)(C)NC(=O)Nc1nc2nc(N)ncc2cc1-c1cccc(Cl)c1Cl
101 to 103 °C | CCOC(=O)c1cccc(-c2ccc3ccccc3c2)c1
148 °C | N#CC1=C(c2ccccc2)Nc2n[nH]cc2C1c1ccccc1C#N (configuration not stated)
195 to 196 °C | CCOc1cc2cc3ncc(C#N)c(Nc4cc(OC)c(Cl)cc4C)c3cc2cc1OCCN1CCOCC1
134 to 136 °C | COc1cc(-c2ccc([N+](=O)[O-])cn2)cc(OC)c1OC
150 to 152 °C | Cc1cc(NC(=O)N(C)C)no1
192 to 194 °C | Cn1cc(CC(=O)O)c2cc(Br)ccc21
172 to 174 °C | O=C(O)C1=CCC2CC(=O)N12 (configuration not stated)
107 to 110 °C | CCN(CC)Cc1ccccc1Oc1ccc(-c2cn(C3CCOC3)c3ncnc(N)c23)cc1 (configuration not stated)
> 250 °C | COc1cc2c(c(-c3ccccc3F)c1)OC(CN)C2 (configuration not stated)
221 to 223 °C | O=C(O)Cc1cccc2c(=O)cc(-c3cc(F)cc(F)c3)oc12
166 to 167 °C | CN(C)N=Nc1c[nH]c(=O)[nH]c1=O
156 to 157 °C | Clc1ccc([C@H]2Cc3cnc(Nc4ccccc4)nc3-c3ccccc32)cc1Cl
101 to 103 °C | CC(=O)C1CCCNC1=O (configuration not stated)
159 to 161 °C | O=C(c1ccc([N+](=O)[O-])cc1[N+](=O)[O-])N1CCOCC1
271 to 272 °C | N#Cc1c(-c2ccc(Cl)cc2)c(-c2ccc(Cl)cc2)n[nH]c1=O
164 to 166 °C | O=C1CC(c2ccccc2)C(c2ccccc2)=NN1C(=O)Nc1ccc(C(F)(F)F)cc1 (configuration not stated)
91 to 92 °C | c1cc(CN2CCCC2)cc(OCCCNc2nc3ccccc3s2)c1

melting point | SMILES
159 to 160 °C | CCCc1c(O)ccc2c1CCCC2=O
260 to 263 °C | CCOCCn1cc2c(C3C(=O)Nc4ccc(Br)cc43)nc(Cl)nc2n1 (configuration not stated)
207 to 208 °C | Cc1ccccc1C(=O)Nc1ccc(C(=O)N2Cc3cc(Cl)ccc3Oc3ccccc32)cc1
107 to 109 °C | O=C(Nc1ccc(F)cc1F)c1nccnc1Oc1cccc(C(F)(F)F)c1
115 °C | COc1cccnc1C(=O)NCCNC(=O)OC(C)(C)C
244 to 247 °C | Cn1ncnc1COc1nn2c(-c3ccccc3)nnc2cc1-c1ccc(Cl)s1
62 to 63 °C | COc1ccc(OC)c2c1ccn2Cc1ccc(Cl)cc1
300 °C | Cn1cc(C(=O)O)c(=O)c2c3cc(N4CCC(O)(c5cccc(C(F)(F)F)c5)CC4)c(F)cc3ncc21
120 °C | COC(=O)N[C@@H]1CN2C(=O)N(c3cc(Cl)nc(Cl)c3)C(=O)[C@@]2(Cc2ccc(OC(F)(F)F)cc2)C1
77 to 79 °C | N#Cc1ccc(CCc2cc(Cl)ccc2OCc2ccccc2)cc1
142 to 143 °C | CN1CCN(c2ccc(NC=C3C(=O)NC(=O)c4ccc(OCCN5CCOCC5)cc43)cc2)CC1
106 to 108 °C | O=S(=O)(NCCN1CCOCC1)C(F)(F)F
114 °C | O=C(NCC1CC1)c1ccc(F)c2c1CC(N(CCCc1c[nH]c3ccc(F)cc13)C1CCC1)CO2 (configuration not stated)
216 to 217 °C | CC(=O)NCC1CC(c2ccc(-n3ccc(C=NO)c3)c(F)c2)=NO1 (single isomer, unassigned; (-))
77 to 78 °C | CC(C)(SC(=S)c1ccccc1)c1ccc(Cl)cc1
188 to 190 °C | CC(=O)ON1C(C)(C)NC(=O)C1(C)C
85 to 86 °C | CCCCCCCCCCCCCCCCn1c2cc(Br)ccc2c2ccc(Br)cc21
214 to 216 °C | NC(=O)c1cc2c(Oc3ccc(C(=O)NCCN4CCOCC4)cc3)cncc2s1
218 to 220 °C | O=C(O)C1=Cc2cc(Cl)cc(Cl)c2SC1C(F)(F)F (configuration not stated)
150 to 151 °C | Cc1oc(-c2cc(C(F)(F)F)cc(C(F)(F)F)c2)nc1COc1cccc(CN(O)C(N)=O)c1
131 to 135 °C | Cn1cc(-c2ccccc2)c(=O)c(-c2cc(Cl)cc(Cl)c2)c1
